Consider three compounds from US20110071147A1, “4-AMINO-THIENO[3,2-C]PYRIDINE-7-CARBOXYLIC ACID AMIDES” (priority 2004, published 2011).

Usually IC50 stands for the concentration that inhibits the measured activity by half.

Counter-ions that a name gives are not always drawn.

For one assay, the target named is T1, KDR (Homo sapiens, UniProt P35968).
T1 construct: EEE tag
Description: KDR kinase HTRF assay. The format is biochemical. The following applies: recombinant EEE-tagged KDR, 0.3 mM ATP. The protocol: (§1) To determine inhibition of KDR and FGFR, kinase assays were conducted using an HTRF (Homogeneous Time Resolved Fluorescence) assay. This assay is described in A. J. Kolb et. al., Drug Discovery Today, 1998, 3(7), p 333.
Prior to kinase reaction, recombinant EEE-tagged KDR was activated in the presence of activation buffer (50 mM HEPES, pH 7.4, 1 mM DTT, 10% glycerol, 150 mM NaCl, 0.1 mM EDTA, 26 mM MgCl2, and 4 mM ATP). The enzyme was incubated at 4° C. for 1 hour.
Kinase activity assays were performed in 96-well polypropylene plates (Falcon) with a total volume of 90 μL in each well. Each well contained 1 μM KDR substrate (Biotin-EEEEYFELVAKKKK), 1 nM activated KDR, and a test compound with one of 8 assay concentrations ranging from 100 μM to […] (1:5 serial dilution). The kinase activity assay was done in the presence of 100 mM HEPES, pH 7.4, 1 mM DTT, 0.1 mM Na2VO4, 25 mM MgCl2, 50 mM NaCl (from KDR stock solution), 1% DMSO (from compound), 0.3 mM ATP (at Km concentration) and 0.02% BSA. The reaction was incubated at 37° C. for 30 minutes. To stop the KDR reaction, 72 μL of reaction mixture was transferred into a STOP plate containing 18 μL of revelation buffer (20 mM EDTA, 50 mM HEPES, pH 7.4, 0.02% BSA, 10 nM Eu-labelled anti-pY antibody (final conc. 2 nM), and 100 nM streptavidin (final conc. 20 nM)). After mixing, 35 μL of solution was transferred into duplicate wells of a 384-well black plate (Costar), and read at 615/665 nm on a Wallac Victor 5 reader.
(§2) Compound IC50 values were determined from duplicate sets of data, and calculated by using Excel and fitting data to equation Y=[(a−b)/{1+(X/c)^d]+b, where a and b are enzyme activity in the presence of no test inhibitor compound and an infinite amount of inhibitor test compound, respectively, c is the IC50 and d is the hill constant of the compound response. The IC50 value is the concentration of test compound that reduces by 50% the enzyme activity under the test conditions described.
In general terms: TR-FRET usually uses a lanthanide donor and a delayed reading to cut background.

Another assay deals with T2, FGFR.
T2 construct: fused on or other part: GST tag
Kind of assay: FGFR kinase HTRF assay. The format is biochemical. The following applies: GST-tagged FGFR, 10 μM ATP. The protocol: as §1
FGFR activity assays were carried out as described above for the KDR activity assay with the following differences. GST-tagged FGFR enzyme was activated at room temperature for 1 hour in the following activation buffer: 100 mM HEPES, pH 7.4, 50 mM NaCl, 20 mM MgCl2, and 4 mM ATP. The kinase activity assay was performed with 1 μM substrate (Biotin-EEEEYFELV), 1.5 nM activated FGFR, and test compound in the presence of 100 mM HEPES, 1 mM DTT, 0.4 mM MgCl2, 0.4 mM MnCl2, 50 mM NaCl, 1% DMSO, 10 μM ATP (Km=8.5 μM for FGFR), 0.1 mM Na2VO4, and 0.02% BSA, in a total volume of 90 μL. The rest of the assay was performed in the same manner as KDR assay.
as §2

Another assay concerns VEGF-stimulated HUVEC. Description: VEGF-stimulated HUVEC proliferation assay (BrdU). The format is cell-based. The following applies: Homo sapiens, VEGF 20 ng per mL, BrdU ELISA, read-out: VEGF-HUVEC (IC50, BrdU labeling). The protocol: (§3) The antiproliferative activity of test compounds of this invention in cell-based assays was evaluated by BrdU assay using the BrdU kit (Roche Biochemicals 1-647-229). Human umbilical vein endothelial cells (HUVEC, Clonetics CC-2519) were cultured in EGM-2 (Clonetics CC-3162) medium and seeded at 10000 cells per well in a volume of 200 μL of EGM-2 (Clonetics CC-3162) media in a 96-well flat bottom plates (Costar 3595) overnight. After 24 hours of growth at 37° C. with 5% CO2, the incubation media was removed slowly by aspiration and the content of each well was washed with 300 μL pre-warmed EBM-2 (Clonetics CC-3156) containing 50 μg per mL of gentamycin and 50 ng per mL of amphotercin-B (Clonetics CC-4083). […]
(§4) After 24 hour exposure to the test compounds, the cells were labeled with BrdU (Roche Biochemicals 1-647-229), by adding 20 μL per well of BrdU labeling reagent that has been diluted (1:100) in serum starvation medium. […] The plates were read at 450 nm with reference wavelength of 650 nm. The percent inhibition for each test compound was calculated by subtracting the absorbency of the blank (no cells) wells from all wells, then subtracting the division of the average absorbency of each test duplicate by the average of the controls from 1. […] The IC50 is determined from the linear regression of a plot of the logarithm of the concentration versus percent inhibition.
For orientation: Uptake of a labelled nucleoside into DNA is a usual measure of proliferation.

The next assay relates to FGF-stimulated HUVEC. Description: FGF-stimulated HUVEC proliferation assay (BrdU). The format is cell-based. The following applies: Homo sapiens, FGF 5 ng per mL, BrdU ELISA, read-out: FGF-HUVEC (IC50, BrdU labeling). The protocol:
as §3, §4

T1 sequence (P35968 20-1356): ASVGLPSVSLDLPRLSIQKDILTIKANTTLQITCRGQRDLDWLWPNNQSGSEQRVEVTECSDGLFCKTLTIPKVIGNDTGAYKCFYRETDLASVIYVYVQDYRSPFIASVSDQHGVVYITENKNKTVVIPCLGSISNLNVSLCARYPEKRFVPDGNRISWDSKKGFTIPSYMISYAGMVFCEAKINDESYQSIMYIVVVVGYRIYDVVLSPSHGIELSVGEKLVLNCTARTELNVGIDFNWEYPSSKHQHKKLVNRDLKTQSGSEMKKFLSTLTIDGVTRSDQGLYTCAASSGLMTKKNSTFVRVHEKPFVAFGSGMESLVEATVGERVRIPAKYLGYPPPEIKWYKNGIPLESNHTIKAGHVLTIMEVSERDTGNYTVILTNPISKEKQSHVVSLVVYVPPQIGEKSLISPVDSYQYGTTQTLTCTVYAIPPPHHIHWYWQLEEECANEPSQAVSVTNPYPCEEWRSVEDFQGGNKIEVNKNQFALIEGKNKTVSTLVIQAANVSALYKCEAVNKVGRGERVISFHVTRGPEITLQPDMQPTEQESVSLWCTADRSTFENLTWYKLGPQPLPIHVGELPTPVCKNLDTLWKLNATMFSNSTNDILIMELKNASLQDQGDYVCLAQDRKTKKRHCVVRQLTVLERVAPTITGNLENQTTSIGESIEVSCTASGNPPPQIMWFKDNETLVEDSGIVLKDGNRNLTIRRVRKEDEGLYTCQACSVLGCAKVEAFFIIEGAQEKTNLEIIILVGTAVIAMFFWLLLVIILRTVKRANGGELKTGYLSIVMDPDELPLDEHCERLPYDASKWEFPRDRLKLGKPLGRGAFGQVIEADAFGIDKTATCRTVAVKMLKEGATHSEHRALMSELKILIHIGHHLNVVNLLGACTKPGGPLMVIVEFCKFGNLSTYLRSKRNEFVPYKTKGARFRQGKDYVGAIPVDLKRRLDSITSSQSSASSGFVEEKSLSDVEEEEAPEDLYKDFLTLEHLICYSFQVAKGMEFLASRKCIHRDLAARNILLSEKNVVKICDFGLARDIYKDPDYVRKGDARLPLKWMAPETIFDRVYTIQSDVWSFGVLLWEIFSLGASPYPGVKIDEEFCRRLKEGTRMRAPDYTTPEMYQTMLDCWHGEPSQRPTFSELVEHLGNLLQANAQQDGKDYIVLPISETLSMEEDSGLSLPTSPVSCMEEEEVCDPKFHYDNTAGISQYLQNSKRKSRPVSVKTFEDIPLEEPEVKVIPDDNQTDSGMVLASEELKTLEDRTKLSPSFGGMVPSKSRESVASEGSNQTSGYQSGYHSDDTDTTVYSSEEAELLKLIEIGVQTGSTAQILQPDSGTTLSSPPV

On to `COc1ccc(OCc2csc3c(C(=O)NCCO)cnc(N)c23)c(Cl)c1` [Example 2, 4-Amino-3-(2-chloro-4-methoxy-phenoxymethyl)-thieno[3,2-c]pyridine-7-carboxylic acid (2-hydroxy-ethyl)-amide], for which the IC50 on KDR amounted to 509 nM.

Consider `Nc1ncc(C(=O)NCCO)c2scc(COc3ccc(Br)cc3)c12` [Example 4a, 4-Amino-3-(4-bromo-phenoxymethyl)-thieno[3,2-c]pyridine-7-carboxylic acid (2-hydroxy-ethyl)-amide], for which the IC50 at KDR was 20 nM; against FGFR it was 72.4 nM; in the assay with VEGF-stimulated HUVEC it was 264 nM; in the assay with FGF-stimulated HUVEC it was 2760 nM.

Regarding `Nc1ncc(C(=O)NCCN2CCOCC2)c2scc(COc3ccc(Br)cc3)c12` [Example 13b, 4-Amino-3-(4-bromo-phenoxymethyl)-thieno[3,2-c]pyridine-7-carboxylic acid (2-morpholin-4-yl-ethyl)-amide hydrochloride salt], the IC50 stood at 58.4 nM on KDR, 180 nM at FGFR, 204 nM in the assay with VEGF-stimulated HUVEC and 627 nM in the assay with FGF-stimulated HUVEC.
